Measurements reported in US20100303936A1, “METHOD OF REDUCING FAT ACCUMULATION AND INDUCING WEIGHT LOSS” (Bionovo, Inc. A Delaware Corporation, priority 2009, published 2010).
Entries after “also recorded” stand apart in the source; their conditions may differ.

Experiment: Ovariectomized mice on high fat diet (HFD): body weight, abdominal fat, uterus and mammary gland
Format: in vivo
Procedure: To test the effects of the two PEs (3 and 39) in animals, 10 week old ovariectomized C57/B16 female mice were placed on a high fat diet (HFD) for 50 days to increase body weight and abdominal fat. After gaining weight, the mice were treated orally for 6 weeks with the two PEs separately while being kept on HFD. The vehicle-treated (placebo) control mice continued to gain weight (9% weight increase) even after treatment. The E2-treated mice, which served as positive controls lost 20.5% of their weight. […] The abdominal fat weight dropped by 48% or 32% in the PE-treated groups (3, 39, respectively) and 80% in E2-treated mice compared to control. The growth of mammary gland (MG) and uteri was assessed by measuring MG and uterine weights and by analyzing MG morphology in whole-mounts. […] FIG. 4.

[1] = ovariectomized mice on HFD, 42 days

For `C[C@]12CC[C@@H]3c4ccc(O)cc4CC[C@H]3[C@@H]1CC[C@@H]2O` [Extract E2, estradiol], which body weight lost (ovariectomized C57/B16 female mice on HFD, treated 6 weeks) is on record?
Its body weight lost is 20.5%.

And the “abdominal fat weight drop compared to control” value (ovariectomized mice on HFD, 6 weeks treatment)?
The value was 80%.

What about the “mammary gland morphology (ducts, histology / whole-mounts)” value [1] of the same compound?
Its value is “elongation and branching of ducts in mammary tissue; also recorded: induced elongation and branching of mammary ducts”.

And the “uterine weight (in words)” value [1]?
Its value is “induced uterine tissue weight gain; also recorded: induced significant weight gain in the uterus”.
